The subject of series [1] is laser-induced choroidal neovascularization. In words: rat models of krypton laser-induced choroidal neovascularization. It counts as in vivo. As to conditions: for inhibitory effect on neovascularization in the choroid (in words): rat models of laser-induced choroidal neovascularization, summary of Table 1; for Suppression rate (%) (inhibition rate of choroidal neovascularization incidence): rat, day 7 after photocoagulation, vs vehicle. The method, then:
The photocoagulation was performed in a posterior fundus at eight spots per eye sparsely by focusing on the retinal deep layer avoiding thick retinal blood vessels (coagulation conditions: spot size: 100 μm, output: 100 mW, coagulation time: 0.1 sec). After the photocoagulation, the ocular fundus was photographed, and the site where the laser was irradiated was confirmed.
Each of the solutions of Compound A at such concentrations was orally administered once daily at a dose of 0.3 mg/kg or 1 mg/kg starting from the day of photocoagulation surgery for 7 days including the day of surgery. […] Each of the solutions of Compound B at such concentrations was orally administered once daily at a dose of 0.3 mg/kg or 1 mg/kg starting from the day of photocoagulation surgery for 7 days including the day of surgery. On the other hand, Compound C was dissolved in PBS (phosphate buffer) at a concentration of 100 mg/ml, and the resulting solution of Compound C was intraperitoneally administered once daily at a dose of 100 mg/kg starting from the day of photocoagulation surgery for […] the day of surgery.
In the fluorescence fundus photography, a spot where fluorescence leakage was not observed (absence of neovascularization) was judged as negative, and a spot where fluorescence leakage was observed was judged as positive (presence of neovascularization). When there are two photocoagulation sites where a little fluorescence leakage was observed, they were judged as positive (presence of neovascularization). […] The case number in each administration group is 7 to 8.
Choroidal neovascularization incidence rate (%)=(Number of positive spots/total number of photocoagulation sites)×100 [Equation 1]
Inhibition rate (%)=(A0−Ax)/A0×100 [Equation 2]
A0: Choroidal neovascularization incidence rate of vehicle administration group Ax: Choroidal neovascularization incidence rate of drug administration group

Series [2] deals with photoreceptor cell damage caused by light exposure. The note with it: for suppressive effect on photoreceptor cell damage (in words): mouse models of light damage, summary of Table 2; for Suppression rate (%) based on a-wave / Suppression rate (%) based on b-wave: mouse, one hour before light exposure, ERG one day after.
Method: After a 0.5% (w/v) tropicamide-0.5% phenylephrine hydrochloride ophthalmic solution was instilled into the eyes of a mouse to cause mydriasis, light damage was induced in the mouse by light exposure (exposure conditions: illuminance level: 5000 Lux, exposure time: 2 hours) with an apparatus for inducing light damage (Sakami Medical Instrument).
Compound A was dissolved in a 1% (w/v) methyl cellulose solution (prepared by dissolving methyl cellulose in purified water) at a concentration of 0.006, 0.02, 0.06 or 0.2 mg/ml, whereby solutions of Compound A were prepared. Each of the solutions of Compound A was orally administered once at a dose of 0.03, 0.1, 0.3 or 1 mg/kg one hour before light exposure. Compound B was also orally administered in the same manner. That is, Compound B was dissolved in a 1% (w/v) methyl cellulose solution at a concentration of 0.02 or 0.2 mg/ml, whereby solutions of Compound B were prepared. Each of the solutions of Compound B was orally administered once at a dose of 0.1 or 1 mg/kg one hour before light exposure. In a vehicle administration group, a 1% (w/v) methyl cellulose solution was administered in the same manner.
One day after light exposure, each mouse was given general anesthesia by intramuscular administration of 2 ml/kg of a mixed solution of a 5% (w/v) ketamine hydrochloride injectable solution, a 2% xylazine hydrochloride injectable solution and physiological saline (7:1:8), and a 0.5% (w/v) tropicamide-0.5% phenylephrine hydrochloride ophthalmic solution was instilled into the eyes to cause mydriasis. Then, the electroretinogram (ERG) was measured using portable ERG & VEP LE-3000 (Tomey Corporation) (measurement conditions: stimulus luminance: 3000 cd/m^2, stimulus duration: 10 msec, background light luminance: 0 cd/m^2), and a- and b-wave amplitudes were calculated from the obtained waveforms. Then, the suppression rate (%) of the drug to be evaluated against the decrease in a- and b-wave amplitudes (photoreceptor cell damage) caused by light exposure was calculated in accordance with Equations 3 and 4. The case number in each administration group was 6 to 8 per group, and the mean value was used for calculating the suppression rate.
Suppression rate against photoreceptor cell damage (%) based on a-wave=(AAZ−AAY)/(AAX−AAY)×100 [Equation 3]
AAX: a-wave amplitude in normal (untreated) group AAY: a-wave amplitude in group with light exposure and vehicle administration AAZ: a-wave amplitude in group with light exposure and drug administration
Suppression rate against photoreceptor cell damage (%) based on b-wave=(ABZ−ABY)/(ABX−ABY)×100 [Equation 4]
ABX: b-wave amplitude in normal (untreated) group ABY: b-wave amplitude in group with light exposure and vehicle administration ABZ: b-wave amplitude in group with light exposure and drug administration
For series [3], the system named is thrombin-induced retinal vascular hyperpermeability.
Method: A rat was given general anesthesia by intramuscular administration of 1 ml/kg of a mixed solution of a 5% (w/v) ketamine hydrochloride injectable solution and a 2% xylazine hydrochloride injectable solution (7:1), and a 0.5% (w/v) tropicamide-0.5% phenylephrine hydrochloride ophthalmic solution was instilled into the eyes to cause mydriasis. Then, 5 μl of thrombin (600 U/mL) was injected into the vitreous body using a 33-gauge needle so as not to hurt the lens and retina. To a rat in a normal group, PBS (phosphate buffer) was injected instead of thrombin.
In a vehicle administration group, a 1% (w/v) methyl cellulose solution was administered in the same manner.
At 24 hours after intravitreal injection of thrombin, each rat was killed by exsanguination, and then, the eyeball of the rat was enucleated while avoiding contamination with blood. […] The collected vitreous body was appropriately diluted with purified water and the protein concentration was determined by the Bradford method. The thus determined protein concentration in the vitreous body was used as an index of retinal vascular permeability. Then, the suppression rate (%) of the drug to be evaluated against the retinal vascular hyperpermeability induced by thrombin was calculated in accordance with Equation 5. […]
[4] abbreviates: 0.3 mg/kg orally once daily for 7 days.
Setting [5] is: 1 mg/kg orally once daily for 7 days.

The structures appear in SMILES notation. Where a name gives a salt, the structure may show the parent alone. Read-outs that look alike come from different tables or passages of the source.

As to `CCCN[C@H]1CCc2nc(N)sc2C1` [Compound A, pramipexole hydrochloride], in series [1], the “inhibitory effect on neovascularization in the choroid (in words)” value (shortened to “inhibitory effect on neovascularization”) is reported as “inhibits choroidal neovascularization”. Further, the “Suppression rate (%) (inhibition rate of choroidal neovascularization incidence)” value in series [1] (setting [4]) and in series [1] (setting [5]) was 60.9% in each case. The “suppressive effect on photoreceptor cell damage (in words)” value in series [2] is “significantly suppresses photoreceptor cell damage”. Also, the “Suppression rate (%) based on a-wave” value in series [2] (0.03 mg/kg orally once) is reported as 41.4%; in series [2] (0.1 mg/kg orally once), 47.3%; in series [2] (0.3 mg/kg orally once), 70.0%; in series [2] (1 mg/kg orally once), 102.0%. Besides, the “Suppression rate (%) based on b-wave” value in series [2] (0.03 mg/kg orally once) is on record as 49.2%; in series [2] (0.1 mg/kg orally once), 44.1%; in series [2] (0.3 mg/kg orally once), 72.1%; in series [2] (1 mg/kg orally once), 92.1%. Moreover, the “suppressive effect on retinal vascular hyperpermeability (in words)” value in series [3] (rat models of thrombin-induced retinal vascular hyperpermeability, summary of Table 3) was “excellent suppressive effect on retinal vascular hyperpermeability”. The “Suppression rate (%) against retinal vascular permeability” value in series [3] (rat, 1 mg/kg orally immediately before and 20 hours after intravitreal thrombin, vitreous protein at 24 hours) is given as 9.9%.

`CC(C)C[C@H]1C(=O)N2CCC[C@H]2[C@]2(O)O[C@](NC(=O)[C@@H]3C=C4c5cccc6[nH]c(Br)c(c56)C[C@H]4N(C)C3)(C(C)C)C(=O)N12` [Compound B, bromocriptine mesilate]: the “inhibitory effect on neovascularization” value in series [1] is “hardly or not at all observed”. Besides, the “Suppression rate (%) (inhibition rate of choroidal neovascularization incidence)” value is given as −2.1% in series [1] (setting [4]) and 4.1% in series [1] (setting [5]). For the same compound, the “suppressive effect on photoreceptor cell damage (in words)” value in series [2] is listed as “hardly or not at all observed”. In addition, the “Suppression rate (%) based on a-wave” value amounted to 0.2% in series [2] (0.1 mg/kg orally once) and 4.8% in series [2] (1 mg/kg orally once). The “Suppression rate (%) based on b-wave” value in series [2] (0.1 mg/kg orally once) was −3.8%; in series [2] (1 mg/kg orally once), 4.9%.

As to `Cl.NCCc1ccc(O)c(O)c1` [Compound C, dopamine hydrochloride], in series [1], the “inhibitory effect on neovascularization” value was “hardly or not at all observed”. Besides, the “Suppression rate (%) (inhibition rate of choroidal neovascularization incidence)” value in series [1] (100 mg/kg intraperitoneally once daily) stood at 11.8%.

The values above are taken from patent US20100130569A1, “PROPHYLACTIC OR THERAPEUTIC AGENT FOR POSTERIOR OCULAR DISEASE COMPRISING NON-ERGOT SELECTIVE D2 RECEPTOR AGONIST AS ACTIVE INGREDIENT” (SATEN PHARMACEUTICAL CO., LTD., priority 2007, published 2010).
